Key:
Format in all cases: in vivo
[1] = tested on: redroot pigweed (Amaranthus retroflexus, AMARE); assay: Pre-emerge test, greenhouse herbicide activity screening; conditions: pre-emerge, rated 14 days after application, 0 = no damage, 100 = complete death
How it was run: (§1)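 Visual ratings on a 0-100 scale (0 no damage, 100 all plants dead) were taken at 14 days after treatment. Rates of 15-1000 g ai/ha in acetone, 187 l/ha, were sprayed onto soil one day after planting (pre-emerge) or onto 2-3 leaf plants with 0.25% v/v surfactant (post-emerge).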

[2] = tested on: barnyardgrass (Echinochloa crus-galli, ECHCG); assay: as above; conditions: pre-emerge, rated 14 days after application, 0 = no damage, 100 = complete death
How it was run: as §1

[3] = tested on: green foxtail (Setaria viridis, SETVI); assay: as above; conditions: pre-emerge, rated 14 days after application, 0 = no damage, 100 = complete death
How it was run: as §1

[4] = tested on: ivyleaf morningglory (Ipomoea hederacea, IPOHE); assay: as above; conditions: pre-emerge, rated 14 days after application, 0 = no damage, 100 = complete death
How it was run: as §1

[5] = tested on: johnsongrass (Sorghum halepense, SORHA); assay: as above; conditions: pre-emerge, rated 14 days after application, 0 = no damage, 100 = complete death
How it was run: as §1

[6] = tested on: lambsquarters (Chenopodium album, CHEAL); assay: as above; conditions: pre-emerge, rated 14 days after application, 0 = no damage, 100 = complete death
How it was run: as §1

[7] = tested on: large crabgrass (Digitaria sanguinalis, DIGSA); assay: as above; conditions: pre-emerge, rated 14 days after application, 0 = no damage, 100 = complete death
How it was run: as §1

[8] = tested on: sicklepod (Cassia obtusifolia, CASOB); assay: as above; conditions: pre-emerge, rated 14 days after application, 0 = no damage, 100 = complete death
How it was run: as §1

[9] = tested on: velvetleaf (Abutilon theophrasti, ABUTH); assay: as above; conditions: pre-emerge, rated 14 days after application, 0 = no damage, 100 = complete death
How it was run: as §1

[10] = tested on: field corn (Zea mays L., var. Dekalb 535, CORN); assay: Pre-emerge test, crop safety; conditions: pre-emerge, rated 14 days after application, 0 = no damage, 100 = complete death
How it was run: (§2)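 Rating: 0–100 visual injury, 14 DAA. Application: acetone, 187 l/ha, 15–1000 g ai/ha, flat-fan track sprayer with nozzle 40–45 cm above soil or canopy. Post-emerge runs used 0.25% v/v surfactant on 2–3 leaf plants.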

[11] = tested on: upland rice (Oryza sp., var. Tebonnet, RICE); assay: Pre-emerge test, crop safety; conditions: pre-emerge, rated 14 days after application, 0 = no damage, 100 = complete death
How it was run: as §2

[12] = tested on: barnyardgrass (Echinochloa crus-galli, ECHCG); assay: Post-emerge test, greenhouse herbicide activity screening; conditions: phytotoxicity rating 0-100 (0 no damage, 100 complete death), 14 days after application
How it was run: as §2

[13] = tested on: green foxtail (Setaria viridis, SETVI); assay: as above; conditions: phytotoxicity rating 0-100 (0 no damage, 100 complete death), 14 days after application
How it was run: as §2

[14] = tested on: ivyleaf morningglory (Ipomoea hederacea, IPOHE); assay: as above; conditions: phytotoxicity rating 0-100 (0 no damage, 100 complete death), 14 days after application
How it was run: as §2

[15] = tested on: johnsongrass (Sorghum halepense, SORHA); assay: as above; conditions: phytotoxicity rating 0-100 (0 no damage, 100 complete death), 14 days after application
How it was run: as §2

[16] = tested on: lambsquarters (Chenopodium album, CHEAL); assay: as above; conditions: phytotoxicity rating 0-100 (0 no damage, 100 complete death), 14 days after application
How it was run: as §2

[17] = tested on: large crabgrass (Digitaria sanguinalis, DIGSA); assay: as above; conditions: phytotoxicity rating 0-100 (0 no damage, 100 complete death), 14 days after application
How it was run: as §2

[18] = tested on: redroot pigweed (Amaranthus retroflexus, AMARE); assay: as above; conditions: phytotoxicity rating 0-100 (0 no damage, 100 complete death), 14 days after application
How it was run: as §2

[19] = tested on: sicklepod (Cassia obtusifolia, CASOB); assay: as above; conditions: phytotoxicity rating 0-100 (0 no damage, 100 complete death), 14 days after application
How it was run: as §2

[20] = tested on: velvetleaf (Abutilon theophrasti, ABUTH); assay: as above; conditions: phytotoxicity rating 0-100 (0 no damage, 100 complete death), 14 days after application
How it was run: as §2

[21] = tested on: field corn (Zea mays L., var. Dekalb 535, CORN); assay: Post-emerge test, crop safety; conditions: phytotoxicity rating 0-100 (0 no damage, 100 complete death), 14 days after application
How it was run: as §1

[22] = tested on: upland rice (Oryza sp., var. Tebonnet, RICE); assay: Post-emerge test, crop safety; conditions: phytotoxicity rating 0-100 (0 no damage, 100 complete death), 14 days after application
How it was run: as §1

In the case of `C=C(C)C(=O)N(C(=O)C(=C)C)c1c(OC)c(Cl)cc(F)c1-n1c(=O)cc(C(F)(F)F)n(C)c1=O` [2-6], the “Pre-emerge Herbicidal Activity AMARE (phytotoxicity rating, scale 0-100)” value (“Pre-emerge Herbicidal Activity AMARE” for short) ([1]; 63 g ai/ha) is reported as 0, the “Pre-emerge Herbicidal Activity AMARE” value ([1]; 250 g ai/ha) is reported as 50 and the “Pre-emerge Herbicidal Activity ECHCG (phytotoxicity rating, scale 0-100)” value (“Pre-emerge Herbicidal Activity ECHCG” below) ([2]; 63 g ai/ha) is reported as 0. For the same compound, the “Pre-emerge Herbicidal Activity ECHCG” value ([2]; 250 g ai/ha) was 0, the “Pre-emerge Herbicidal Activity SETVI (phytotoxicity rating, scale 0-100)” value (shortened to “Pre-emerge Herbicidal Activity SETVI”) ([3]; 63 g ai/ha) was 0 and the “Pre-emerge Herbicidal Activity SETVI” value ([3]; 250 g ai/ha) was 80. For the same compound, the “Pre-emerge Herbicidal Activity IPOHE (phytotoxicity rating, scale 0-100)” value (“Pre-emerge Herbicidal Activity IPOHE” for short) ([4]; 63 g ai/ha) was 0, the “Pre-emerge Herbicidal Activity IPOHE” value ([4]; 250 g ai/ha) was 0 and the “Pre-emerge Herbicidal Activity SORHA (phytotoxicity rating, scale 0-100)” value (“Pre-emerge Herbicidal Activity SORHA” below) ([5]; 63 g ai/ha) was 0. The “Pre-emerge Herbicidal Activity SORHA” value ([5]; 250 g ai/ha) was 20, the “Pre-emerge Herbicidal Activity CHEAL (phytotoxicity rating, scale 0-100)” value (shortened to “Pre-emerge Herbicidal Activity CHEAL”) ([6]; 63 g ai/ha) was 0 and the “Pre-emerge Herbicidal Activity CHEAL” value ([6]; 250 g ai/ha) was 0. The “Pre-emerge Herbicidal Activity DIGSA (phytotoxicity rating, scale 0-100)” value (“Pre-emerge Herbicidal Activity DIGSA” for short) ([7]; 63 g ai/ha) was 0, the “Pre-emerge Herbicidal Activity DIGSA” value ([7]; 250 g ai/ha) was 10 and the “Pre-emerge Herbicidal Activity CASOB (phytotoxicity rating, scale 0-100)” value (“Pre-emerge Herbicidal Activity CASOB” below) ([8]; 63 g ai/ha) was 0. The “Pre-emerge Herbicidal Activity CASOB” value ([8]; 250 g ai/ha) was 0, the “Pre-emerge Herbicidal Activity ABUTH (phytotoxicity rating, scale 0-100)” value (shortened to “Pre-emerge Herbicidal Activity ABUTH”) ([9]; 63 g ai/ha) was 0 and the “Pre-emerge Herbicidal Activity ABUTH” value ([9]; 250 g ai/ha) was 0. For the same compound, the “Pre-emerge crop damage CORN (phytotoxicity rating, scale 0-100)” value (“Pre-emerge crop damage CORN” for short) ([10]; 63 g ai/ha) was 0, the “Pre-emerge crop damage CORN” value ([10]; 250 g ai/ha) was 0 and the “Pre-emerge crop damage RICE (phytotoxicity rating, scale 0-100)” value (shortened to “Pre-emerge crop damage RICE”) ([11]; 63 g ai/ha) was 0. For the same compound, the “Pre-emerge crop damage RICE” value ([11]; 250 g ai/ha) was 0, the “Post-emerge Herbicidal Activity ECHCG” value ([12]; 63 g ai/ha) was 0 and the “Post-emerge Herbicidal Activity ECHCG” value ([12]; 250 g ai/ha) was 0. For the same compound, the “Post-emerge Herbicidal Activity SETVI” value ([13]; 63 g ai/ha) was 0, the “Post-emerge Herbicidal Activity SETVI” value ([13]; 250 g ai/ha) was 0 and the “Post-emerge Herbicidal Activity IPOHE” value ([14]; 63 g ai/ha) was 0. The “Post-emerge Herbicidal Activity IPOHE” value ([14]; 250 g ai/ha) was 30, the “Post-emerge Herbicidal Activity SORHA” value ([15]; 63 g ai/ha) was 0 and the “Post-emerge Herbicidal Activity SORHA” value ([15]; 250 g ai/ha) was 0. The “Post-emerge Herbicidal Activity CHEAL” value ([16]; 63 g ai/ha) was 0, the “Post-emerge Herbicidal Activity CHEAL” value ([16]; 250 g ai/ha) was 30 and the “Post-emerge Herbicidal Activity DIGSA” value ([17]; 63 g ai/ha) was 0. The “Post-emerge Herbicidal Activity DIGSA” value ([17]; 250 g ai/ha) was 0, the “Post-emerge Herbicidal Activity AMARE” value ([18]; 63 g ai/ha) was 0 and the “Post-emerge Herbicidal Activity AMARE” value ([18]; 250 g ai/ha) was 10. The “Post-emerge Herbicidal Activity CASOB” value ([19]; 63 g ai/ha) was 0, the “Post-emerge Herbicidal Activity CASOB” value ([19]; 250 g ai/ha) was 0 and the “Post-emerge Herbicidal Activity ABUTH” value ([20]; 63 g ai/ha) was 0. For the same compound, the “Post-emerge Herbicidal Activity ABUTH” value ([20]; 250 g ai/ha) was 70, the “Post-emerge Herbicidal Activity CORN (crop damage)” value ([21]; 63 g ai/ha) was 0 and the “Post-emerge Herbicidal Activity CORN (crop damage)” value ([21]; 250 g ai/ha) was 5. The “Post-emerge Herbicidal Activity RICE (crop damage)” value ([22]; 63 g ai/ha) was 0 and the “Post-emerge Herbicidal Activity RICE (crop damage)” value ([22]; 250 g ai/ha) was 0.

For `COc1c(Cl)cc(F)c(-n2c(=O)cc(C(F)(F)F)n(C)c2=O)c1NC(=O)C=C(C)C` [2-7], the “Pre-emerge Herbicidal Activity AMARE” value ([1]; 63 g ai/ha) was 90, the “Pre-emerge Herbicidal Activity AMARE” value ([1]; 250 g ai/ha) was 100 and the “Pre-emerge Herbicidal Activity ECHCG” value ([2]; 63 g ai/ha) was 40. For the same compound, the “Pre-emerge Herbicidal Activity ECHCG” value ([2]; 250 g ai/ha) was 100, the “Pre-emerge Herbicidal Activity SETVI” value ([3]; 63 g ai/ha) was 95 and the “Pre-emerge Herbicidal Activity SETVI” value ([3]; 250 g ai/ha) was 100. The “Pre-emerge Herbicidal Activity IPOHE” value ([4]; 63 g ai/ha) was 70, the “Pre-emerge Herbicidal Activity IPOHE” value ([4]; 250 g ai/ha) was 100 and the “Pre-emerge Herbicidal Activity SORHA” value ([5]; 63 g ai/ha) was 90. For the same compound, the “Pre-emerge Herbicidal Activity SORHA” value ([5]; 250 g ai/ha) was 95, the “Pre-emerge Herbicidal Activity CHEAL” value ([6]; 63 g ai/ha) was 100 and the “Pre-emerge Herbicidal Activity CHEAL” value ([6]; 250 g ai/ha) was 100. The “Pre-emerge Herbicidal Activity DIGSA” value ([7]; 63 g ai/ha) was 95, the “Pre-emerge Herbicidal Activity DIGSA” value ([7]; 250 g ai/ha) was 100 and the “Pre-emerge Herbicidal Activity CASOB” value ([8]; 63 g ai/ha) was 60. For the same compound, the “Pre-emerge Herbicidal Activity CASOB” value ([8]; 250 g ai/ha) was 100, the “Pre-emerge Herbicidal Activity ABUTH” value ([9]; 63 g ai/ha) was 100 and the “Pre-emerge Herbicidal Activity ABUTH” value ([9]; 250 g ai/ha) was 100. The “Pre-emerge crop damage CORN” value ([10]; 63 g ai/ha) was 10, the “Pre-emerge crop damage CORN” value ([10]; 250 g ai/ha) was 70 and the “Pre-emerge crop damage RICE” value ([11]; 63 g ai/ha) was 60. For the same compound, the “Pre-emerge crop damage RICE” value ([11]; 250 g ai/ha) was 90, the “Post-emerge Herbicidal Activity ECHCG” value ([12]; 63 g ai/ha) was 0 and the “Post-emerge Herbicidal Activity ECHCG” value ([12]; 250 g ai/ha) was 0. The “Post-emerge Herbicidal Activity SETVI” value ([13]; 63 g ai/ha) was 0, the “Post-emerge Herbicidal Activity SETVI” value ([13]; 250 g ai/ha) was 30 and the “Post-emerge Herbicidal Activity IPOHE” value ([14]; 63 g ai/ha) was 50. For the same compound, the “Post-emerge Herbicidal Activity IPOHE” value ([14]; 250 g ai/ha) was 90, the “Post-emerge Herbicidal Activity SORHA” value ([15]; 63 g ai/ha) was 0 and the “Post-emerge Herbicidal Activity SORHA” value ([15]; 250 g ai/ha) was 0. For the same compound, the “Post-emerge Herbicidal Activity CHEAL” value ([16]; 63 g ai/ha) was 40, the “Post-emerge Herbicidal Activity CHEAL” value ([16]; 250 g ai/ha) was 50 and the “Post-emerge Herbicidal Activity DIGSA” value ([17]; 63 g ai/ha) was 0. The “Post-emerge Herbicidal Activity DIGSA” value ([17]; 250 g ai/ha) was 0, the “Post-emerge Herbicidal Activity AMARE” value ([18]; 63 g ai/ha) was 10 and the “Post-emerge Herbicidal Activity AMARE” value ([18]; 250 g ai/ha) was 50. The “Post-emerge Herbicidal Activity CASOB” value ([19]; 63 g ai/ha) was 0, the “Post-emerge Herbicidal Activity CASOB” value ([19]; 250 g ai/ha) was 30 and the “Post-emerge Herbicidal Activity ABUTH” value ([20]; 63 g ai/ha) was 70. The “Post-emerge Herbicidal Activity ABUTH” value ([20]; 250 g ai/ha) was 95, the “Post-emerge Herbicidal Activity CORN (crop damage)” value ([21]; 63 g ai/ha) was 0 and the “Post-emerge Herbicidal Activity CORN (crop damage)” value ([21]; 250 g ai/ha) was 10. For the same compound, the “Post-emerge Herbicidal Activity RICE (crop damage)” value ([22]; 63 g ai/ha) was 40 and the “Post-emerge Herbicidal Activity RICE (crop damage)” value ([22]; 250 g ai/ha) was 40.

— US6355799B1, “Substituted benzene compounds, process for their preparation, and herbicidal and defoliant compositions containing them” (ISK Americas Incorporated, priority 1997, dated 2002)
